Measurements taken from the CheMixHub viscosity set.

Assay: xn = mol fraction of the nth substance listed
Settings: 100 kPa

CCCCCCCCCCC + CCCCCCCCCCO
viscosity [mPa·s]
Settings	x1 = 0.1003	x1 = 0.2003	x1 = 0.3005	x1 = 0.3972	x1 = 0.4989	x1 = 0.5997	x1 = 0.7007	x1 = 0.8	x1 = 0.8987
293.15 K	10.47	7.7	5.667	4.374	3.193	2.542	1.992	1.626	1.378
298.15 K	8.685	6.471	4.833	3.775	2.8	2.254	1.793	1.486	1.256
303.15 K	7.267	5.479	4.152	3.283	2.477	2.015	1.628	1.368	1.154
308.15 K	6.125	4.678	3.591	2.873	2.202	1.814	1.508	1.252	1.06
313.15 K	5.2	4.018	3.127	2.533	1.97	1.644	1.376	1.149	0.979
318.15 K	4.447	3.475	2.741	2.26	1.773	1.518	1.256	1.058	0.908
323.15 K	3.825	3.02	2.418	2.006	1.655	1.382	1.152	0.975	0.846
